Test results published in PubChem BioAssay AID1996.
In brackets after ≈: the same amount, converted by molar mass.

conditions: buffer; pH 7.4; 200.0 µM

SMILES | solubility kinetic
O=C(CN1C(=O)NC2(CCCC2)C1=O)Nc1ccccc1N1CCCC1 | 46.4 µg/mL (≈ 130 µM)
Cn1c(N)c(C(=O)Nc2ccccc2F)sc1=S | 4.4 µg/mL (≈ 15.5 µM)
Cc1ccc(Cl)cc1NC(=O)NCCN1CCCCC1 | > 44.4 µg/mL
Cc1c(CNCCc2ccccc2)c(C(=O)O)c(C)n1-c1ccccc1 | > 52.3 µg/mL
C=CCC1(C#N)C(=S)NC(C)=C(C(=O)OCC)C1c1ccccc1 (stereo not given) | > 51.1 µg/mL
O=c1oc2ccc([N+](=O)[O-])cc2c(N2CCOCC2)c1[N+](=O)[O-] | > 48.2 µg/mL
COCCNC(=O)CN1C(=O)c2cccc3cccc1c23 | > 42.6 µg/mL
CCc1c(C(=O)NCCc2cccc(C)c2)[nH]c(C)c1C(C)=O | 5 µg/mL (≈ 16 µM)
Cc1ccc(O)c(NC(=O)c2cc(-c3cccs3)on2)c1 | 0.6 µg/mL (≈ 2 µM)
O=c1[nH]c(=S)n(-c2ccccc2)c(O)c1C=NCc1ccccn1 | > 50.8 µg/mL
CCOC(=O)c1cc(-c2c(Cl)cccc2Cl)no1 | 12.1 µg/mL (≈ 42.3 µM)
COc1cccc(NC(=S)N(CCN(C)C)C(C)c2cccnc2)c1 (stereo not given) | > 53.8 µg/mL
Cc1cc(C)cc(NC(=O)COC(=O)c2ccc3c(c2)OCCO3)c1 | 2.3 µg/mL (≈ 6.74 µM)
Cc1ccc(S(=O)(=O)/N=C(/c2ccccc2)N(C)C)c(C)c1 | > 47.5 µg/mL
CC(=O)Nc1ccc(S(=O)(=O)N(C)c2ccc(OCCOc3ccccc3F)cc2)cc1 | 6.5 µg/mL (≈ 14.2 µM)
COc1cc(/C=N/NC(=O)c2ccccc2)ccc1O | > 40.5 µg/mL
CC(NC(=O)C1CC1)c1ccc(-c2ccccc2)cc1 (stereo not given) | 1.5 µg/mL (≈ 5.65 µM)
CCOc1ccccc1C(=O)NCC(=O)N(C)Cc1ccccc1C | > 51.1 µg/mL
N#Cc1c(N)n(-c2ccc(O)cc2)c2nc3ccccc3nc12 | 1.2 µg/mL (≈ 3.98 µM)
Cc1ccc(S(=O)(=O)NC2CC2)s1 | > 32.6 µg/mL
CC(c1ccccc1)N1CCN(C(=O)CCl)CC1.Cl (stereo not given) | 43.3 µg/mL
CC(=O)N(c1ccc(Cl)cc1)c1cn(C(C)=O)c2ccccc12 | > 49 µg/mL
Cn1ccc(C(=O)Nc2ccc3c(c2)OCCO3)n1 | > 38.9 µg/mL
O=C(Nc1ccc2[nH]c(=O)[nH]c2c1)c1ccc(Br)o1 | 8.3 µg/mL (≈ 25.8 µM)

SMILES | solubility kinetic
Cn1ccc(/C=N/N=C2/NC(=O)CS2)n1 | > 33.5 µg/mL
O=C(O)CCCC(=O)Nc1ccc(Oc2cccc(C(F)(F)F)c2)nc1 | > 55.2 µg/mL
CN1/C(=C\C=O)C(C)(C)c2ccccc21 | > 30.2 µg/mL
O=C1NC2(CCCCCC2)C(=O)N1Cc1ccccc1 | > 40.9 µg/mL
Cn1cnc(NCc2ccccc2)c1[N+](=O)[O-] | 1.2 µg/mL (≈ 5.17 µM)
CCOc1ccc(OCCCC(=O)N2CCN(S(=O)(=O)c3ccccc3C#N)CC2)cc1 | 27.2 µg/mL (≈ 59.4 µM)
CC(=O)c1cccc(NC(=O)N2CCCCCC2)c1 | > 39.1 µg/mL
O=C(Cc1ccccc1F)NCC1(N2CCOCC2)CCCCC1 | > 50.2 µg/mL
CCN(CC)CCC(=O)c1ccc(F)cc1.Cl | > 39 µg/mL
Cc1ccc(OCC(=O)N2CCCCCCC2)cc1 | > 39.2 µg/mL
CC(=O)N/C(=C\c1ccc2c(c1)OCO2)C(=O)NC(C(=O)O)c1ccccc1 (stereo not given) | > 57.4 µg/mL
Cc1ccc(N2CCN(S(=O)(=O)c3ccc(C)cc3)CC2)cc1 | < 0.4 µg/mL
COc1ccccc1C(=O)NCCC(=O)N(C)Cc1ccc(C)o1 | > 49.6 µg/mL
CCOc1ccc(C(=O)OC(C)CN2CCCCC2)cc1.Cl (stereo not given) | > 49.2 µg/mL
Cc1cc(C)c(S(=O)(=O)c2ccc(F)cc2C)c(=O)[nH]1 | > 44.3 µg/mL
CC(C)CC(=O)N1CCN(Cc2ccc(Cl)cc2)CC1 | 28.4 µg/mL (≈ 96.3 µM)
Fc1ccc(-c2csc(-c3ccc(C4SCCS4)cc3)n2)cc1F | < 0.8 µg/mL
Cc1ccc2nsnc2c1NC(=O)c1ccc([N+](=O)[O-])o1 | > 45.6 µg/mL
Cc1ccc(S(=O)(=O)Nc2ccc3c(c2)OCCO3)cc1 | 42.3 µg/mL (≈ 139 µM)
Cc1cc(C)nc(Nc2cc([N+](=O)[O-])ccc2C)n1.Cl | 5.4 µg/mL
Cl.Fc1ccc(CNC2CN3CCC2CC3)cc1 (stereo not given) | > 46.1 µg/mL
O=C(O)C1CCCCC1C(=O)NCc1ccc(Cl)c(Cl)c1 (stereo not given) | 35.6 µg/mL (≈ 108 µM)
COC(=O)c1c(C(=O)OC)c2n(c1C)CCS2 | > 38.3 µg/mL
COCCNC(=S)N1CCN(c2nc3ccccc3s2)CC1 | 35.3 µg/mL (≈ 105 µM)

SMILES | solubility kinetic
Cc1cc(N2CCNCC2)nc2ccccc12 | 33.3 µg/mL (≈ 146 µM)
CCOC(=O)Cn1nc(C)n(-c2ccc(F)cc2)c1=O | > 41.9 µg/mL
Cn1ncc(Br)c1C(=O)N1CCCC1 | > 38.7 µg/mL
Cc1ccccc1CN1CCN(CC2CC2)CC1CCO (stereo not given) | > 43.3 µg/mL
CC1CC(C)CN(C(=O)CCCNC(=O)c2ccc(Cl)cc2)C1 (stereo not given) | > 50.5 µg/mL
CCOC(=O)c1sc(NC(=O)Cc2ccc(F)cc2)nc1C | 3.8 µg/mL (≈ 11.8 µM)
CCC1(c2ccc(-c3ccccc3)cc2)C(=O)NC(=O)NC1=O | 4.6 µg/mL (≈ 14.9 µM)
CN1C(=O)OC(C)(C)C1=O | < 0.3 µg/mL
O=C(CC1CCCCC1)NCc1nc(-c2ccccc2)no1 | 5.8 µg/mL (≈ 19.4 µM)
CCCOc1ccc(CN(C)c2ncnc(N)n2)cc1 | 13.5 µg/mL (≈ 49.4 µM)
NC(=O)COC(=O)CC(c1ccccc1)c1ccccc1 | > 42.5 µg/mL
Cc1cc(SCc2ccccc2Cl)nc(=O)[nH]1 | 30 µg/mL (≈ 112 µM)
COc1ccc(NS(=O)(=O)c2ccc(O)c(NS(=O)(=O)c3ccc(NC(C)=O)cc3)c2)cc1 | > 73.7 µg/mL
CC(C)(C)NC(=O)Cn1c(SCC(=O)NC2CCCC2)nc2ccccc21 | 52.9 µg/mL (≈ 136 µM)
O=C(COC(=O)c1ccco1)NCc1ccc(Cl)cc1Cl | 14.1 µg/mL (≈ 43 µM)
Cn1cc([N+](=O)[O-])c(C(=O)NCC(=O)O)n1 | > 34.2 µg/mL
Cc1cc(C)c(C2=CSC3=NS(=O)(=O)CCN23)c(C)c1 | > 46.3 µg/mL
Cc1cc2nc(/C(C#N)=C/c3ccncc3)[nH]c2cc1C | 1.7 µg/mL (≈ 6.2 µM)
COc1ccc(S(=O)(=O)NCc2cccnc2)cc1Br | 35.5 µg/mL (≈ 99.4 µM)
COc1ccc(-c2noc(CSc3nc(N)cc(=O)[nH]3)n2)cc1 | 7.7 µg/mL (≈ 23.2 µM)
O=C(CCc1ccccc1)N1CCCC(Nc2ccc(F)cc2)C1 (stereo not given) | 41.4 µg/mL (≈ 127 µM)
O=C(Nc1cc(C(F)(F)F)ccc1N1CCOCC1)c1cnccn1 | 1.1 µg/mL (≈ 3.12 µM)
CC(NCCC(c1ccccc1)c1ccccc1)c1ccccc1.Cl (stereo not given) | > 52.8 µg/mL
CN(C)C(=O)Oc1ccnc2cc(Cl)ccc12 | > 37.6 µg/mL

SMILES | solubility kinetic
CN1CCN(CC(=O)Nc2c(C(=O)c3ccccc3)oc3ccccc23)CC1 | 48.4 µg/mL (≈ 128 µM)
O=C(Nc1c[nH]c(=O)[nH]c1=O)c1ccccc1Br | > 46.5 µg/mL
COc1ccccc1Nc1nc(N)nc(CN2CCCCC2)n1 | > 47.2 µg/mL
Cc1noc(C)c1C(=O)NC1=NCCS1 | > 33.8 µg/mL
COc1ccc(C(=O)CCC(=O)Nc2cccnc2)cc1 | > 42.6 µg/mL
CC1(CO)COC(c2ccccc2)=N1 (stereo not given) | > 28.7 µg/mL
COc1ccc2[nH]c(C(=O)N(Cc3ccccn3)Cc3ccccn3)cc2c1 | > 55.9 µg/mL
CC1(NC(=O)Cc2c(F)cccc2Cl)CCS(=O)(=O)C1 (stereo not given) | > 48 µg/mL
Cc1cccc(NC(=O)c2cc(Cl)nc3ccccc23)n1 | 19.9 µg/mL (≈ 66.8 µM)
COc1cccc(N2CCN(C(=O)c3ccc4nc[nH]c4c3)CC2)c1 | 48.6 µg/mL (≈ 144 µM)
Nc1nc(Cl)cc(=O)n1Cc1ccc(Cl)cc1 | 28.1 µg/mL (≈ 104 µM)
CCOc1ccccc1NC(=O)Nc1ccc2c(c1)OCO2 | 2.8 µg/mL (≈ 9.32 µM)
CCCc1nc(SCC(=O)NC2CC2)c2c(C)c(C)sc2n1 | 0.8 µg/mL (≈ 2.38 µM)
COC(=O)c1cc(S(=O)(=O)N2CCCCC2)c[nH]1 | > 40.8 µg/mL
COc1ccc(CCNC(=O)COc2ccccc2[N+](=O)[O-])cc1OC | > 54.1 µg/mL
Cc1cccc(NC(=S)N2CCN(C(=O)c3ccco3)CC2)c1 | > 49.4 µg/mL
Cc1ccc(C(=O)CCC(=O)NC2=NCCS2)cc1 | 10.8 µg/mL (≈ 39.1 µM)
NC(=O)c1nn(CC(=O)Nc2ccc3c(c2)OCO3)cc1[N+](=O)[O-] | > 50 µg/mL
COc1cc(OC)nc(NC(=O)NS(=O)(=O)c2ccccc2Cl)n1 | 45 µg/mL (≈ 121 µM)
Cc1oc(C(C)(C)C)cc1C(=O)NCc1ccc2c(c1)OCO2 | < 0.7 µg/mL
CCc1ccc(C(=O)Nc2ccc(C)c(NS(C)(=O)=O)c2)cc1 | 39.7 µg/mL (≈ 119 µM)
Cc1nn(CC(=O)NC(C)c2ccccc2)c(C)c1[N+](=O)[O-] (stereo not given) | > 45.3 µg/mL
Cc1ccccc1OCC(=O)OCC(=O)N1CCc2ccccc21 | 1.8 µg/mL (≈ 5.53 µM)
CC1CCCCC12NC(=O)N(CC(=O)NCc1ccccc1Cl)C2=O (stereo not given) | > 54.6 µg/mL

SMILES | solubility kinetic
Cc1ccc(F)cc1NC(=O)C1C2CCC(O2)C1C(=O)O (stereo not given) | > 44 µg/mL
CCOC(=O)c1ccc(N2C(=O)c3cccc4c(C(=O)O)ccc(c34)C2=O)cc1 | 25 µg/mL (≈ 64.2 µM)
O=C(NC1CC1)c1ccc(CSCc2ccccc2Cl)o1 | > 48.3 µg/mL
COc1cccc(Oc2nc(-c3ccncc3)nc3ccccc23)c1 | < 0.2 µg/mL
CCSc1nsc(NC(=O)Nc2cccc(OC)c2)n1 | 1.7 µg/mL (≈ 5.48 µM)
COc1ccc(CN2CCc3c([nH]c4ccccc34)C2)cc1Br | 9.8 µg/mL (≈ 26.4 µM)
O=C(CNS(=O)(=O)c1ccc(F)cc1)N1CCCC1 | > 42.9 µg/mL
COc1ccc(NC(=O)c2cccc(Cl)c2)c[n+]1[O-] | > 41.8 µg/mL
Cc1ccc(S(=O)(=O)NC(=O)COc2ccccc2)cc1 | > 45.8 µg/mL
CC1CCCN(C(=O)CN2C(=O)C(C)Oc3ccccc32)C1 (stereo not given) | > 45.4 µg/mL
O=C(O)c1ccccc1C(=O)NC1CCCCNC1=O (stereo not given) | > 41.4 µg/mL
Cc1cc2oc(=O)c(CC(=O)NCCCO)c(C)c2c2occ(C(C)(C)C)c12 | 28 µg/mL (≈ 72.6 µM)
O=C(Cc1ccccc1)N/N=C/c1cccnc1 | > 35.9 µg/mL
Cc1ccc(/C(N)=N/OC(=O)C(C)c2ccc([N+](=O)[O-])cc2)cc1 (stereo not given) | 8.3 µg/mL (≈ 25.4 µM)
O=C(NCc1cccnc1)c1cc(C(=O)C2CC2)c[nH]1 | > 40.4 µg/mL
O=C(Nc1ccc(Cl)cc1Cl)c1cc2ccccc2o1 | < 0.7 µg/mL
CCCCNC(=O)Cn1nc(Cc2ccncc2)c2ccccc2c1=O | > 52.6 µg/mL
Cc1occc1C(=O)Nc1cccc([N+](=O)[O-])c1C | 36 µg/mL (≈ 138 µM)
CCOC(=O)c1ccc(S(=O)(=O)N2CCN(CCc3ccncc3)CC2)cc1 | > 60.5 µg/mL
Nc1ccc(C(=O)O)c(O)c1 | > 23 µg/mL
Cc1ccc(-c2cn(-c3ccccc3)c(=S)[nH]2)cc1C | 16.6 µg/mL (≈ 59.2 µM)
O=c1oc2ccc(Cl)cc2nc1/C=C(\O)c1cccs1 | 20.9 µg/mL (≈ 68.4 µM)
Cc1csc(SCC(=O)Nc2sccc2C(N)=O)n1 | 43.8 µg/mL (≈ 140 µM)
O=C(Cc1cccs1)N1CCN=C1SCc1ccc(F)cc1 | 26 µg/mL (≈ 77.7 µM)
